From US20250215030A1, “STAT MODULATORS AND USES THEREOF” (Recludix Pharma, Inc., priority 2022, published 2025) come the findings set out here.

Molecules are shown by their SMILES.

In the first assay the target is T1, pSTAT3 (pY705-STAT3) (Homo sapiens, UniProt P40763).
T1 construct: host or cells: cryopreserved PBMC
T1 sequence (P40763 whole entry): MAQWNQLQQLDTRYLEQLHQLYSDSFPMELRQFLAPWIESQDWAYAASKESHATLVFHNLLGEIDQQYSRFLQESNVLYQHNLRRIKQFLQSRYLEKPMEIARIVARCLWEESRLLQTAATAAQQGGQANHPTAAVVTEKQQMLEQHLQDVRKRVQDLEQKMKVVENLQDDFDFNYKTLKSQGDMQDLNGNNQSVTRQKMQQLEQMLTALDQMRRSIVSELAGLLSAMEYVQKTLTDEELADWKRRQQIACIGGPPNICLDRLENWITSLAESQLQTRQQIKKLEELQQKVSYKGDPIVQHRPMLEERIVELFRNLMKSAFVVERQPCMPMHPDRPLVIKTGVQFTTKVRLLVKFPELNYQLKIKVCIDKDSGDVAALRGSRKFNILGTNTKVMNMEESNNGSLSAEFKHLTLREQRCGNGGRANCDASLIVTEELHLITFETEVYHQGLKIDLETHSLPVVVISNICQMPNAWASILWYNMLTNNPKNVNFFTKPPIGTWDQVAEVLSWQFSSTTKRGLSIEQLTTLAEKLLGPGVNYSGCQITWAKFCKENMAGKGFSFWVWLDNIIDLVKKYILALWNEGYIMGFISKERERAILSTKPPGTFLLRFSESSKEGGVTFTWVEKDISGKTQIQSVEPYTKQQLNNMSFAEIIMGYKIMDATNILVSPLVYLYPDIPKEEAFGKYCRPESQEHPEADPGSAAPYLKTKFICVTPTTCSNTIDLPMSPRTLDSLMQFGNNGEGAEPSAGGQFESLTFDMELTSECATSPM
Briefly: MSD-pSTAT-PBMC Assay (pSTAT3, IL-6 stimulated). The format is cell-based.
Details: not given
An excerpt:
Cryopreserved Peripheral Blood Mononuclear Cells (PBMC) are from AllCells. Recombinant Human IL-4 and IL-6 are from Peprotech. Mouse monoclonal anti-STAT3 antibody, rabbit monoclonal anti-pY705-STAT3 antibody, rabbit monoclonal Anti-pY641-STAT6 antibody, and lysis buffer are from Cell Signaling Technology (CST). Mouse monoclonal anti-STAT6 antibody is from BioLegend. Assay plates, blocker, and anti-rabbit secondary antibody are from Meso Scale Discovery (MSD).
Cryopreserved PBMCs were thawed out and allowed to recover overnight in IMDM+10% heat-inactivated FBS prior to plating 50,000 (STAT3) or 25,000 (STAT6) cells per well in 96-well U-bottom tissue culture plates. Cells were treated with compound for 3 hrs, then stimulated with 10 ng/mL IL-6 (STAT3) or 1 ng/mL IL-4 (STAT6) for 10 min. Cells were then spun down and washed with ice-cold PBS prior to lysing the cell pellet with 1× lysis buffer (CST) with 1× HALT protease and phosphatase inhibitor cocktail (Thermo). Lysates were transferred to and incubated overnight at 4° C. with shaking in QuickPlex 96-well high bind assay plates (MSD) pre-coated overnight with 30 μL per well of 0.6 μg/mL mouse monoclonal anti-STAT3 antibody (STAT3) or 2 μg/mL mouse monoclonal anti-STAT6 antibody (STAT6) in 1×PBS, and pre-blocked for 1 hour with 3% Blocker-A (MSD). Captured protein in the assay plates were then washed and probed with 25 μL per well of 0.25 μg/ml rabbit monoclonal anti-pY705-STAT3 antibody (STAT3) or 0.18 μg/ml rabbit monoclonal Anti-pY641-STAT6 antibody (STAT6) in 1% Blocker-A for 1 hour at room temperature with shaking, then washed and probed with 25 ul per well of 1 ug/mi Sulfo-TAG Labeled Goat Anti-Rabbit Antibody (MSD) in 1% Blocker-A for 1 hour at room temperature with shaking. Assay plates were then washed and 150 μL of 1× Read Buffer-T (MSD) was added to each well prior to reading on an SQ120 MSD Plate Reader. Assay signal from each sample was subtracted by the signal from unstimulated control wells and normalized to DMSO control wells. IC50 values were calculated using Graph Pad Prism Dose-Response Nonlinear Regression with variable slope. For both pSTAT3 and pSTAT6 A=≤100 nM; B=>100-1000 nM; C=>1000-3000 nM; and D=>3 μM.
Consider `CCCOC(=O)[C@H](C)N[P@@](=O)(Oc1ccccc1)[C@H](F)c1ccc2sc(C(=O)N[C@H]3C[C@@H]4C[C@@H]4C[C@H]4CC[C@@H](C(=O)N5CC(c6cnccc6N(C)C)C5)N4C3=O)cc2c1` (stereo in doubt) [Compound 415, propyl((R)-((R)-(2-(((3S,6S,7aS,8aR,9aR)-3-(3-(4-(dimethylamino)pyridin-3-yl)azetidine-1-carbonyl)-5-oxodecahydro-1H-cyclopropa[d]pyrrolo[1,2-a]azocin-6-yl)carbamoyl)benzo[b]thiophen-5-yl)fluoromethyl)(phenoxy)phosphoryl)-L-alaninate], for which the IC50 was less than 100 nM. Still for that read-out and setting: with `CCCOC(=O)[C@H](C)NP(=O)(Cc1ccc2sc(C(=O)N[C@H]3C[C@H]4C[C@H]4CC4CC[C@@H](C(=O)N[C@H]5CN(C(C)=O)C[C@@H]5F)N4C3=O)cc2c1)Oc1ccccc1` (stereo partly drawn) [Compound 245, propyl(((2-(((3S,6S,7aR,8aS,9aR)-3-(((3S,4S)-1-acetyl-4-fluoropyrrolidin-3-yl)carbamoyl)-5-oxodecahydro-1H-cyclopropa[d]pyrrolo[1,2-a]azocin-6-yl)carbamoyl)benzo[b]thiophen-5-yl)methyl)(phenoxy)phosphoryl)-L-alaninate] the figure was 1000 to 3000 nM; with `CCCOC(=O)[C@H](C)NP(=O)(Oc1ccccc1)[C@H](F)c1ccc2sc(C(=O)N[C@H]3C[C@@H]4C[C@@H]4C[C@H]4CC[C@@H](C(=O)N5CC(c6cnccc6N6CC[C@H]6COC)C5)N4C3=O)cc2c1` (stereo partly drawn) [Compound 416, propyl(((S)-fluoro(2-(((3S,6S,7aS,8aR,9aR)-3-(3-(4-((S)-2-(methoxymethyl)azetidin-1-yl)pyridin-3-yl)azetidine-1-carbonyl)-5-oxodecahydro-1H-cyclopropa[d]pyrrolo[1,2-a]azocin-6-yl)carbamoyl)benzo[b]thiophen-5-yl)methyl)(phenoxy)phosphoryl)-L-alaninate], less than 100 nM.

The assay is the same for the next values; noted with them: PBMC, compound 3 hrs, then 10 ng/mL IL-6 for 10 min; MSD pY705-STAT3; read-out: pSTAT3.
With `CC(C)OC(=O)[C@H](C)NP(=O)(Cc1ccc2sc(C(=O)N[C@H]3C[C@@H]4C[C@@H]4C[C@H]4CC[C@@H](C(=O)N5CC(C(=O)N6CCOCC6)C5)N4C3=O)cc2c1)OCC(F)(F)F` (stereo partly drawn) [Compound 200, isopropyl (((2-(((3S,6S,7aS, 8aR,9aR)-3-(3-(morpholine-4-carbonyl)azetidine-1-carbonyl)-5-oxodecahydro-1H-cyclopropa [d]pyrrolo[1,2-a]azocin-6-yl)carbamoyl)benzo[b]thiophen-5-yl)methyl) (2,2,2-trifluoroethoxy)phosphoryl)-L-alaninate], the IC50 fell in the range of 100 to 1000 nM. On the same count and under the same terms, in the case of `CCCOC(=O)[C@H](C)NP(=O)(Oc1ccccc1)C(F)c1ccc2sc(C(=O)N[C@H]3C[C@@H]4C[C@@H]4C[C@H]4CC[C@@H](C(=O)N5CC(c6ncco6)C5)N4C3=O)cc2c1` (stereo partly drawn) [Compound 323, propyl ((fluoro(2-(((3S,6S,7aS,8aR,9aR)-3-(3-(oxazol-2-yl)azetidine-1-carbonyl)-5-oxodecahydro-1H-cyclopropa[d]pyrrolo[1,2-a]azocin-6-yl)carbmaoyl)benzo[b]thiophen-5-yl)methyl)(phenoxy)phosphoryl)-L-alaninate] it was less than 100 nM; in that of `CCCOC(=O)[C@H](C)NP(=O)(Cc1ccc2sc(C(=O)N[C@H]3C[C@@H]4C[C@@H]4C[C@H]4CC[C@@H](C(=O)N5CC(c6cnccc6C)C5)N4C3=O)cc2c1)OCC(F)(F)F` (stereo partly drawn) [Compound 311, propyl(((2-(((3S,6S,7aS,8aR,9aR)-3-(3-(4-methylpyridin-3-yl)azetidine-1-carbonyl)-5-oxodecahydro-1H-cyclopropa[d]pyrrolo[1,2-a]azocin-6-yl)carbamoyl)benzo[b]thiophen-5-yl)methyl)(2,2,2-trifluoroethoxy)phosphoryl)-L-alaninate], less than 100 nM; in that of `CC(C)OC(=O)[C@H](C)NP(=O)(Cc1ccc2sc(C(=O)N[C@H]3C[C@@H]4C[C@@H]4C[C@H]4CC[C@@H](C(=O)N5CC(C(=O)N6CCOCC6)C5)N4C3=O)cc2c1)N[C@@H](C)C(=O)OC(C)C` [Compound 147, diisopropyl 2,2′-((((2-(((3S,6S,7aS, 8aR,9aR)-3-(3-(morpholine-4-carbonyl)azetidine-1-carbonyl)-5-oxodecahydro-1H-cyclopropa[d]pyrrolo[1,2-a]azocin-6-yl)carbamoyl)benzo[b]thiophen-5-yl)methyl)phosphoryl)bis(azanediyl)) (2S,2′S)-dipropionate], greater than 3000 nM. Same read-out and setting: with `CC(C)(CO)C(=O)OCOP(=O)(OCOC(=O)C(C)(C)CO)C(F)(F)c1ccc2sc(C(=O)N[C@H]3C[C@@H]4C[C@@H]4C[C@H]4CC[C@@H](C(=O)N5CC(C(=O)N6CCOCC6)C5)N4C3=O)cc2c1` [Compound 132, (((difluoro(2-(((3S,6S,7aS, 8aR,9aR)-3-(3-(morpholine-4-carbonyl)azetidine-1-carbonyl)-5-oxodecahydro-1H-cyclopropa[d]pyrrolo[1,2-a]azocin-6-yl)carbamoyl)benzo[b]thiophen-5-yl)methyl)phosphoryl)bis(oxy)) bis(methylene) bis(3-hydroxy-2,2-dimethyl-propanoate)] the figure was greater than 3000 nM.

For the compound `CCCOC(=O)[C@H](C)NP(=O)(Oc1ccccc1)C(F)c1ccc2sc(C(=O)N[C@H]3C[C@@H]4C[C@@H]4C[C@H]4CC[C@@H](C(=O)N5CC(c6ncccn6)C5)N4C3=O)cc2c1` (stereo partly drawn) [Compound 315, propyl ((fluoro(2-(((3S,6S,7aS,8aR,9aR)-5-oxo-3-(3-(pyrimidin-2-yl)azetidine-1-carbonyl)decahydro-1H-cyclopropa[d]pyrrolo[1,2-a]azocin-6-yl)carbamoyl)benzo[b]thiophen-5-yl)methyl)(phenoxy)phosphoryl)-L-alaninate], the IC50 is 100 to 1000 nM. The same measure, in the same setting: in the case of `CC(C)CC(=O)SCCOP(=O)(N[C@@H](C)C(=O)OCc1ccccc1)C(F)(F)c1ccc2sc(C(=O)N[C@H]3C[C@@H]4C[C@@H]4C[C@H]4CC[C@@H](C(=O)N5CC(C(=O)N6CCOCC6)C5)N4C3=O)cc2c1` (stereo partly drawn) [Compound 164, benzyl ((difluoro(2-(((3S,6S,7aS, 8aR,9aR)-3-(3-(morpholine-4-carbonyl)azetidine-1-carbonyl)-5-oxodecahydro-1H-cyclopropa [d]pyrrolo[1,2-a]azocin-6-yl)carbamoyl)benzo[b]thiophen-5-yl)methyl)(2-((3-methyl-butanoyl)thio)ethoxy)phosphoryl)-L-alaninate] it was greater than 3000 nM; in that of `CC(C)OC(=O)OCOP(=O)(Cc1ccc2sc(C(=O)N[C@H]3C[C@H]4C[C@H]4C[C@H]4CC[C@@H](C(=O)N[C@@H]5CCN(c6cccnc6)C5)N4C3=O)cc2c1)OCOC(=O)OC(C)C` [Compound 226, diisopropyl (((((2-(((3S,6S,7aR, 8aS,9aR)-5-oxo-3-(((R)-1-(pyridin-3-yl)pyrrolidin-3-yl)carbamoyl)decahydro-1H-cyclopropa[d]pyrrolo[1,2-a]azocin-6-yl)carbamoyl)benzo[b]thiophen-5-yl)methyl)phosphoryl)bis(oxy))bis(methylene)) bis(carbonate)], less than 100 nM; in that of `CC(C)OC(=O)COP(=O)(Oc1ccccc1)C(F)(F)c1ccc2sc(C(=O)N[C@H]3C[C@@H]4C[C@@H]4C[C@H]4CC[C@@H](C(=O)N5CC(C(=O)N6CCOCC6)C5)N4C3=O)cc2c1` (stereo partly drawn) [Compound 194, isopropyl 2-(((difluoro(2-(((3S,6S,7aS, 8aR,9aR)-3-(3-(morpholine-4-carbonyl)azetidine-1-carbonyl)-5-oxodecahydro-1H-cyclopropa[d]pyrrolo[1,2-a]azocin-6-yl)carbamoyl)benzo[b]thiophen-5-yl)methyl) (phenoxy)phosphoryl)oxy) acetate], 100 to 1000 nM.
